# Assays:
# [1] = biological target: T1, UCHL1 (Homo sapiens, UniProt P09936); experiment: active-site cysteine modification (in-house validation); format: binding; settings: covalent
# T1 construct: full length residues 1-223, N-terminal GST tag (pGEX6P1), 3C protease elution, E. coli BL21(DE3)
# T1 sequence (P09936 1-223): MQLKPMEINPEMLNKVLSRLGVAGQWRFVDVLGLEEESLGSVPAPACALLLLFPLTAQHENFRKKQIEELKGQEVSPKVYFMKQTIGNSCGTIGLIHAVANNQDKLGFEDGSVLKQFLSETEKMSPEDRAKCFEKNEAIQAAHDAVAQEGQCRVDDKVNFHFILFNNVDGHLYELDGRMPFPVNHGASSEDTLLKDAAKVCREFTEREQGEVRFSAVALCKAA
# [2] = biological target: T2, USP40 (Homo sapiens, UniProt Q9NVE5); experiment: DUB-ABPP competition with biotin-Ub-PA / biotin-Ub-VME, TMT MS; format: biochemical; settings: chloroacetamide; 10 µM
# T2 construct: endogenous full-length protein in HEK293T lysate
# T2 sequence (Q9NVE5 1-1235): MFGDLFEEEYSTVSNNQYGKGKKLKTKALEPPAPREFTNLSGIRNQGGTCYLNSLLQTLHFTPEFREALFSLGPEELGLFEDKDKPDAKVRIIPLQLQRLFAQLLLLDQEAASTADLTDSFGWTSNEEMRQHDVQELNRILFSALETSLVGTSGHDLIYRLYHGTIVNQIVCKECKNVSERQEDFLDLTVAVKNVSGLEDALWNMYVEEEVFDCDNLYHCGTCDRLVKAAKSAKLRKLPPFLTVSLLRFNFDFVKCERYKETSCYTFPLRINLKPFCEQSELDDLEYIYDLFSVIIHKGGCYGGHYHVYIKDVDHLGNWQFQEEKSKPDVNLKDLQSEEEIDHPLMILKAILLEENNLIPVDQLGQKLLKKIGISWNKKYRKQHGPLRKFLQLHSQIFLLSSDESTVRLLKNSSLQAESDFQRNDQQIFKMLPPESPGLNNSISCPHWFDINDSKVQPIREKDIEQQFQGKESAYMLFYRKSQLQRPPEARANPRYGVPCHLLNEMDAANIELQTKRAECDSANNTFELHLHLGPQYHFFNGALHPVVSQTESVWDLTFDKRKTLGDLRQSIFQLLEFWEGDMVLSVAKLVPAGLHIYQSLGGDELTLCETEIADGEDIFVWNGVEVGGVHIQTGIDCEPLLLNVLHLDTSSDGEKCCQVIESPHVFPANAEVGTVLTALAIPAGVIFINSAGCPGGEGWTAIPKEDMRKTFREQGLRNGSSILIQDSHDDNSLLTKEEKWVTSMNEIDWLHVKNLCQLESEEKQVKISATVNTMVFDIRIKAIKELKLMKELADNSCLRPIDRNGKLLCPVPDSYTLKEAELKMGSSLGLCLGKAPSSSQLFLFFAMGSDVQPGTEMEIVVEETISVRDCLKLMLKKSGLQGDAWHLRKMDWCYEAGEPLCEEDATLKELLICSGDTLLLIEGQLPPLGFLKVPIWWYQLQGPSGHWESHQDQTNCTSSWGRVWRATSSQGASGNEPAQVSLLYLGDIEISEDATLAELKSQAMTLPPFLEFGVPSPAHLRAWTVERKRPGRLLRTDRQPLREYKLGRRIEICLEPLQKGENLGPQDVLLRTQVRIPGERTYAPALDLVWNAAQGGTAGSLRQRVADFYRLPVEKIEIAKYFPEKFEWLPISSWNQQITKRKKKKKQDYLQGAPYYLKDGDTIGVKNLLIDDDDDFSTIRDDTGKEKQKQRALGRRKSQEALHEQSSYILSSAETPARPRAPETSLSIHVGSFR
# [3] = biological target: T3, VCPIP1 (Homo sapiens, UniProt Q96JH7); experiment: targeted cysteine chemoproteomics (PRM-LIVE); format: biochemical; settings: covalent (catalytic cysteine); 50 µM compound in cell extract
# T3 construct: endogenous full-length protein in HEK293 / HEK293T cell extract
# T3 sequence (Q96JH7 1-1222): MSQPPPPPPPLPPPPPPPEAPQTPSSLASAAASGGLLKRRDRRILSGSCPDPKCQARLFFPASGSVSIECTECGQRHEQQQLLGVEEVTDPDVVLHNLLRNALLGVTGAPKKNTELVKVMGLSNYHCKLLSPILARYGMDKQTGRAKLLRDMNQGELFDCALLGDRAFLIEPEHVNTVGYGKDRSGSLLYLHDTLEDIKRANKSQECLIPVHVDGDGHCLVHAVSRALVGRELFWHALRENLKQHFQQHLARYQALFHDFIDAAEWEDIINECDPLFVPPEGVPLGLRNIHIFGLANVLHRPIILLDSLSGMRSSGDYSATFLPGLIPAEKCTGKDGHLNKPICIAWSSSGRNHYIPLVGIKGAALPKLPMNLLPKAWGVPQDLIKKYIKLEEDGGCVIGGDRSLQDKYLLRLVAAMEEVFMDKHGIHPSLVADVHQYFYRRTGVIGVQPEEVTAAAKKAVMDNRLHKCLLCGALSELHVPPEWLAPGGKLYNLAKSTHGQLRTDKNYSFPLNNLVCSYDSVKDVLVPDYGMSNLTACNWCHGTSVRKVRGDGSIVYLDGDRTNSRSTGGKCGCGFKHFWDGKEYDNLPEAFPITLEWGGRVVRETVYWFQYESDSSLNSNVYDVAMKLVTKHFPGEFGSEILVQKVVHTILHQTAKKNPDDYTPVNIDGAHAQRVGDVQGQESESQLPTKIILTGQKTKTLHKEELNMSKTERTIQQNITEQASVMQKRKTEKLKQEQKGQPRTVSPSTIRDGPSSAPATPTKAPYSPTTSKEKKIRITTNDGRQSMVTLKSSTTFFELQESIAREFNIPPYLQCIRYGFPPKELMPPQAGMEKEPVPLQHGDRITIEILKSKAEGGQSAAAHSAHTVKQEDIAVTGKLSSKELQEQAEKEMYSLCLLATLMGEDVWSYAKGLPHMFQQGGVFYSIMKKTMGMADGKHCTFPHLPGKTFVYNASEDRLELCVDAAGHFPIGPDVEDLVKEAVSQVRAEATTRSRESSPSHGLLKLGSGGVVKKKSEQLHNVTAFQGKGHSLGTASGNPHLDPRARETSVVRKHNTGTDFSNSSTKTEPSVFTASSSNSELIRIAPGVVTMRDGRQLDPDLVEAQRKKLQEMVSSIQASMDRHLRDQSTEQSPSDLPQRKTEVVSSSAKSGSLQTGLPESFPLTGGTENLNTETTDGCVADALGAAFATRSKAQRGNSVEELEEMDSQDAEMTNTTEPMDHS
# [4] = biological target: T4, BAP1 (Homo sapiens, UniProt Q92560); experiment: DUB-ABPP competition with biotin-Ub-PA / biotin-Ub-VME, TMT MS; format: biochemical; settings: chloroacetamide; 50 µM
# T4 construct: endogenous full-length protein in HEK293T lysate
# T4 sequence (Q92560 1-729): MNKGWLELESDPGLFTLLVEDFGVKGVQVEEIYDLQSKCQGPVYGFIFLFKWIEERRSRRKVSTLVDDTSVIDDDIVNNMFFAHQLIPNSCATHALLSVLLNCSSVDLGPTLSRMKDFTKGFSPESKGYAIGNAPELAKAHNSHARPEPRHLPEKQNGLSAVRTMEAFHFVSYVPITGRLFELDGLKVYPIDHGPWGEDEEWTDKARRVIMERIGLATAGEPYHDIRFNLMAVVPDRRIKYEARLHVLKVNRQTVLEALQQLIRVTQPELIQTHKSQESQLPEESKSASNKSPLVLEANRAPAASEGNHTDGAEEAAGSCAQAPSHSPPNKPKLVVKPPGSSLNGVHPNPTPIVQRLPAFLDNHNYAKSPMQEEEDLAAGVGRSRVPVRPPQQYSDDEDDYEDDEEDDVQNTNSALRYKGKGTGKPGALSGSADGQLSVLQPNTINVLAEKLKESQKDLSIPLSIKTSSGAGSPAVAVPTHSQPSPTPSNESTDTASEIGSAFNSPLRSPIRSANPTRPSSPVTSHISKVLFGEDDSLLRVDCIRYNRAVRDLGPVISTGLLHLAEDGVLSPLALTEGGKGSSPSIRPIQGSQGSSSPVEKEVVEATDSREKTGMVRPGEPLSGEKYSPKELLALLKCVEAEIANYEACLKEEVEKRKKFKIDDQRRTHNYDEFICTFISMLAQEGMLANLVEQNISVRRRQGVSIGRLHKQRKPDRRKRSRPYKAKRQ
# [5] = biological target: T5, USP7 (Homo sapiens, UniProt Q93009); experiment: as above; format: biochemical; settings: covalent inhibitor
# T5 construct: endogenous full-length protein in HEK293T lysate
# [6] = biological target: T6, USP22 (Homo sapiens, UniProt Q9UPT9); parameters: ubiquitin-rhodamine cleavage by purified DUB, fluorescence initial rate, 6 h pre-incubation with inhibitor; settings: n=1; inhibitor
# T6 construct: purified enzyme
# T6 sequence (Q9UPT9 1-525): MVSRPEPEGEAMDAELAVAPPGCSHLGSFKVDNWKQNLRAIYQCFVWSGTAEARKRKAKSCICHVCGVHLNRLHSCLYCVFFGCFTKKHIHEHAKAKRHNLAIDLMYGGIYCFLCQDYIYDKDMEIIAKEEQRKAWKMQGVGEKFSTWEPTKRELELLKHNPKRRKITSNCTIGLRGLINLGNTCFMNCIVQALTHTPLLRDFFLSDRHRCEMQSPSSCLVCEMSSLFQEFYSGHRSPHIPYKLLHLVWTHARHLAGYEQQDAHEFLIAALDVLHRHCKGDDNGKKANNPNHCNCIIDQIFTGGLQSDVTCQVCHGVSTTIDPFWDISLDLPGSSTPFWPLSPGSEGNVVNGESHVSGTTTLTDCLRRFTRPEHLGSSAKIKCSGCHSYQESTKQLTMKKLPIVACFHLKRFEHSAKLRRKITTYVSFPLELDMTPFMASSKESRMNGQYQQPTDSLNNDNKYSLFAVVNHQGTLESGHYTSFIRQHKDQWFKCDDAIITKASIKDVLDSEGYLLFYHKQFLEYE
# T5 sequence (Q93009 whole entry): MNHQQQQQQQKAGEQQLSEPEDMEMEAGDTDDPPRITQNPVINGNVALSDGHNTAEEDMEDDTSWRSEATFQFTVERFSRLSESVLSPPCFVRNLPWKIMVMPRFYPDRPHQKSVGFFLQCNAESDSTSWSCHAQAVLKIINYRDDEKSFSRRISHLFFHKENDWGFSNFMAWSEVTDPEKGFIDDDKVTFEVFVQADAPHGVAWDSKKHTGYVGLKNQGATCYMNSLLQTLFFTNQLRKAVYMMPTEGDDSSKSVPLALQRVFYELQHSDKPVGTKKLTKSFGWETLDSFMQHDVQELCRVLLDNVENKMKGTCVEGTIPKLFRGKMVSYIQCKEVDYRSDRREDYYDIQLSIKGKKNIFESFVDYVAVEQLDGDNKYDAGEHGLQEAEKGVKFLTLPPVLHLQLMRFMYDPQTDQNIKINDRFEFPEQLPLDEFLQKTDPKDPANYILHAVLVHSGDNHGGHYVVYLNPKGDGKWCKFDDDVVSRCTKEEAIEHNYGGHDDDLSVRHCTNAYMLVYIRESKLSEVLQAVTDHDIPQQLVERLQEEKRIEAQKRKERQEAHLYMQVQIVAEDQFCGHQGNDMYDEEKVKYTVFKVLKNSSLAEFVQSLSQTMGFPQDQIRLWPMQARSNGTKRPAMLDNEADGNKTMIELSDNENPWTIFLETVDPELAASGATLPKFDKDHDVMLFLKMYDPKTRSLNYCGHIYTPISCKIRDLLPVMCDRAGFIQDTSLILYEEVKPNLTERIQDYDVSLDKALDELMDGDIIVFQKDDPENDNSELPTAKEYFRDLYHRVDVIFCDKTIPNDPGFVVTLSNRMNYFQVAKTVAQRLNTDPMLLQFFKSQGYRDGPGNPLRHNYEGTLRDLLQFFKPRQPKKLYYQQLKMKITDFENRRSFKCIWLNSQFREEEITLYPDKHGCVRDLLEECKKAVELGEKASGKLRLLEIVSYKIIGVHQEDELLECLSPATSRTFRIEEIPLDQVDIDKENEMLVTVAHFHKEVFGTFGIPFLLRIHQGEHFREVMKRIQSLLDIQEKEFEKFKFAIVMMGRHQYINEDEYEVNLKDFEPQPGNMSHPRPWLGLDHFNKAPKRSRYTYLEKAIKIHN
compound,measurement,setting,value
N#CN1CCC(C(=O)Nc2cn(Cc3ccccc3)cn2)C1 (stereo not drawn) [SB1-F-22],active-site cysteine modification (in-house validation),[1],validated in-house to modify the active site cysteine of UCHL1
COc1ccc(C(=O)NCC2CN(C(=O)CCl)C2)cc1 [V08],"DUB-ABPP competition with biotin-Ub-PA / biotin-Ub-VME, TMT MS",[2],"USP16 (V03), and USP40 (V08, V09)"
O=C(NCC1CN(C(=O)CCl)C1)c1ccccc1 [WH-9943-103C],% target occupancy at 50 μM,[3],~ 78%
same,"DUB-ABPP competition with biotin-Ub-PA / biotin-Ub-VME, TMT MS",[4],"hit several DUBs including VCPIP1 (WH-9943-103C), BAP1 (WH-9943-103C)"
CN1CCN(CCC(=O)Nc2ccc3c(=O)n(CC4(O)CCN(C(=O)[C@@H](CCCNC(=O)c5ccc6c(Cl)c7c(nc6c5)CCCC7)Cc5ccccc5)CC4)cnc3c2)CC1 [XL177A],"DUB-ABPP competition with biotin-Ub-PA / biotin-Ub-VME, TMT MS",[5],recapitulated the DUB binding profiles expected for our selective chemotypes
O=C(CCl)N1CCC(O)(CNc2ncc3ccccc3n2)CC1 [XL_10320_009A],IC50,[6],94.4 µM

# Reference: publication PMC9908924, “Accelerating inhibitor discovery for deubiquitinating enzymes” (Nature Communications, 2023)
